Laboratory results published in patent publication US6649394B1, “Topoisomerase IV, corresponding nucleotide sequences and uses thereof” (priority 1997, dated 2003).

How the values were obtained:
[1] = biological target: T1, wild-type GrlAB protein (DNA topoisomerase IV) of S. aureus (Staphylococcus aureus, UniProt P0C1S7+P0C1U9); assay: Decatenation of kinetoplast DNA by purified wild-type GrlAB protein; type: biochemical
T1 construct: made in house; host or cells: E. coli XL1-Blue (pXL2340 for GrlA, pXL2320 for GrlB; pRSETB vector, T7 promoter)
Description: (§1) The ATP-dependent activity of decatenation of intertwined circular DNA molecules (catenanes) can be detected by carrying out the procedure, for example, in the following manner: a mixture of an extract of the E. coli strain XL1-blue pXL2320 (2.5 μg of proteins) and of an extract of the E. coli strain XL1-blue pXL2340 (2.5 μg of proteins) is incubated for 1 h at 37° C. in 40 μl of 50 mM Tris/HCl buffer pH 7.7 containing 1 mM ATP, 6 mM MgCl2, 200 mM glutamate, 10 mM DTT, 10 mM NaCl, 50 μg/ml of bovine serum albumin and 800 ng of kinetoplast DNA [consisting of a network of intertwined DNA molecules (catenanes) obtained from Crithidia fasciculata; TopoGene]. The reaction is stopped by adding 7 μl of a 250 mM EDTA solution (incubation 5 min at 37° C.), 5 μl of a 5% SDS and 2.5 mg/ml proteinase K mixture (incubation 30 min at 37° C.). The mixture is then analysed by electrophoresis on a 1% agarose gel in a 0.1 M Tris/borate buffer pH 8.3 containing 2 mM EDTA at 6 V/cm for 2 h 30 min. After staining the DNA with ethidium bromide (1 μg/ml), the DNA is quantified by scanning the negatives of photographs of the gels (Polaroid type 665 film) with the aid of a Bioimage 50S apparatus (Millipore). […] This activity is detected by the appearance of a DNA band with a size of about 2.5 kb and by the disappearance of the band of catenated DNA of very large size which penetrates very little into the gel during the electrophoretic run (FIG. 5).
(§2) To carry out the experiments described in the examples which follow, the incubations are carried out with the purified wild-type GrlAB proteins as described in Example 7, and with the mutant protein GrlA(Ser-80→Tyr)B as described in Example 8. The two wild-type and mutant GrlAB proteins are reconstituted by mixing equimolar quantities of their two GrlA and GrlB subunits.

[2] = biological target: T2, mutant protein GrlA(Ser-80→Tyr)B (DNA topoisomerase IV) of S. aureus (Staphylococcus aureus, UniProt P0C1S7+P0C1U9, F80Y); assay: biochemical
T2 construct: made in house; host or cells: E. coli XL1-Blue (pXL2742 for GrlA Ser-80→Tyr, pXL2320 for GrlB)
Description: as §1
(§3) The ATP-dependent activities of supercoiled DNA relaxation, on the one hand, and of decatenation of intertwined circular DNA molecules, on the other hand, are detected in this extract as described in Example 7, by incubating, in the same reaction mixture, an acellular extract of the E. coli strain XL1-Blue pXL2742 containing the protein GrlA(Ser-80→Tyr) and an extract of the E. coli strain XL1-Blue pXL2320 containing the GrlB protein.
as §2

[3] = tested on: mutant protein GrlA(Ser-80→Tyr)B (DNA topoisomerase IV) of S. aureus; assay: biochemical; design: species or system Staphylococcus aureus; details: GrlA(Ser-80→Tyr)B versus wild-type GrlAB
Description: as §1, §3, §2

SMILES | IC50 [1] | IC50 [2] | concentration for 50% inhibition with mutant enzyme relative to wild-type enzyme [3] | concentration above which the activity of decatenation of kinetoplast DNA is completely inhibited ([1]; purified wild-type GrlAB enzyme)
C[C@@H]1CN(c2c(F)c(N)c3c(=O)c(C(=O)O)cn(C4CC4)c3c2F)C[C@H](C)N1 [sparfloxacin] | 15.3 µM | 1270 µM | 80 times | 
CO[C@@H]1[C@@H](OC(N)=O)[C@@H](O)[C@H](Oc2ccc3c(O)c(NC(=O)c4ccc(O)c(CC=C(C)C)c4)c(=O)oc3c2C)OC1(C)C [novobiocin] | ~49 µM | ~49 µM |  | 
O=C(O)c1cn(C2CC2)c2cc(N3CCNCC3)c(F)cc2c1=O [ciprofloxacin] |  |  |  | > 10 µg/mL
CC1COc2c(N3CCN(C)CC3)c(F)cc3c(=O)c(C(=O)O)cn1c23 (centres unmarked) [Ofloxacin] | 27.7 µM | 692 µM |  | 
